Results on 19 compounds are retold here after patent publication US9718817B2, “Aryl and heteroaryl ether compounds as ROR gamma modulators” (Glenmark Pharmaceuticals S.A., priority 2014, dated 2017).

For this test, the target named is T1, GST-tagged ROR gamma ligand binding domain (LBD) (Homo sapiens, UniProt P51449).
T1 construct: purchased Invitrogen
T1 sequence (P51449 269-508 limits assumed): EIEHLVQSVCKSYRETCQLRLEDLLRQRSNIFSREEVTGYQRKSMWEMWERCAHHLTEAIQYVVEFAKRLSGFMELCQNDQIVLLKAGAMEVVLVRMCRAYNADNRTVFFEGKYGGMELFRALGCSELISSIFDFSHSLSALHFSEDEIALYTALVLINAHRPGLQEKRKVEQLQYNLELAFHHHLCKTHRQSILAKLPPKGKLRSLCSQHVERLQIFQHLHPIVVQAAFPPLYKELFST
In words: TR-FRET assay for ROR gamma (LanthaScreen co-activator peptide recruitment). Type of test: biochemical. Conditions: for inhibition at 1 µM: compound 1 μM; for inhibition at 1 µM / inhibition at 10 µM: TR-FRET ratio 520/495, percent of control; for inhibition at 10 µM: compound 10 μM; for IC50: class symbols, from dose response curve. An excerpt: The compounds described herein were screened for ROR gamma modulator activity using the TR-FRET assay by Lantha Screen as described in JBC 2011, 286, 26: 22707-10; and Drug Metabolism and Disposition 2009, 37, 10: 2069-78.
The assay is based on the principle that binding of the agonist to the ROR gamma causes a conformational change around helix 12 in the ligand binding domain, resulting in higher affinity for the co-activator peptide. ROR gamma being constitutively active, the Fluorescein-D22 co-activator peptide used in the assay is recruited in the absence of a ligand. Binding of the co-activator peptide, causes an increase in the TR-FRET signal while binding of an antagonist decreases the recruitment of the co-activator peptide, causing a decrease in the TR-FRET signal compared to control with no compound. The assay was performed using a two-step procedure, pre-incubation step with the compound followed by the detection step on addition of the anti-GST tagged terbium (Tb) and fluorescein tagged fluorophores as the acceptor.
Test compounds or reference compounds such as T0901317 (Calbiochem) were dissolved in dimethylsulfoxide (DMSO) to prepare 10.0 mM stock solutions and diluted to the desired concentration. The final concentration of DMSO in the reaction was 4% (v/v). The assay mixture was prepared by mixing 10 nM of the GST-tagged ROR gamma ligand binding domain (LBD) in the assay buffer containing 25 mM HEPES (pH 7.4), 100 mM NaCl, 5 mM DTT and 0.01% BSA with or without the desired concentration of the compound. The reaction was incubated at 22° C. for 1 hour. The pre-incubation step was terminated by addition of the detection mixture containing 300 nM Fluorescein-D22 co-activator peptide and 10 nM lantha screen Tb-anti GST antibody into the reaction mixture. After shaking for 5 minutes the reaction was further incubated for 1 hour at room temperature and read at 4° C. on an Infinite F500 reader as per the kit instructions (Invitrogen). The inhibition of test compound was calculated based on the TR-FRET ratio of 520/495. The activity was calculated as a percent of control reaction. IC50 values were calculated from dose response curve by nonlinear regression analysis using GraphPad Prism software.
Percentage inhibition at concentrations of 1.0 μM and 10.0 μM are given in the table along with IC50 (nM) details for selected examples.

Take `CCS(=O)(=O)c1ccc(CC(=O)Nc2ccc(OC3(c4ccc(Cl)c(F)c4)CCN(C)CC3)cc2)cc1` [Example 44, N-{4-[4-(4-Chloro-3-fluoro-phenyl)-1-methyl-piperidin-4-yloxy]-phenyl}-2-(4-ethanesulfonyl-phenyl)-acetamide]: the inhibition (in general, the drop in the measured response relative to a control, in per cent) at 1 µM stood at 44.6% and the inhibition at 10 µM came out at 70%.

As to `CCS(=O)(=O)c1ccc(CC(=O)Nc2ccc(OC3(c4ccc(Cl)c(F)c4)COC3)cc2)cc1` [Example 45, N-{4-[3-(4-Chloro-3-fluoro-phenyl)-oxetan-3-yloxy]-phenyl}-2-(4-ethanesulfonyl-phenyl)-acetamide], the IC50 (commonly the concentration at which inhibition is half-maximal) was less than 50 nM, the inhibition at 1 µM stood at 76.8% and the inhibition at 10 µM is 85.7%.

As for `CCS(=O)(=O)c1ccc(CC(=O)Nc2ccc(OC3(c4ccc(Cl)c(Cl)c4)COC3)cc2)cc1` [Example 46, N-{4-[3-(3,4-Dichlorophenyl)-oxetan-3-yloxy]-phenyl}-2-(4-ethanesulfonyl-phenyl)-acetamide], the IC50 was more than 100 nM, the inhibition at 1 µM came out at 68.1% and the inhibition at 10 µM was 86.3%.

In the case of `CCS(=O)(=O)c1ccc(CC(=O)Nc2ccc(OC3(c4ccc(Cl)cc4Cl)COC3)cc2)cc1` [Example 47, N-{4-[3-(2,4-Dichlorophenyl)-oxetan-3-yloxy]-phenyl}-2-(4-ethanesulfonyl-phenyl)-acetamide], the IC50 is less than 50 nM, the inhibition at 1 µM came to 90.3% and the inhibition at 10 µM worked out at 93.2%.

On to `CCS(=O)(=O)c1ccc(CC(=O)Nc2ccc(OC3(c4ccc(C(F)(F)F)c(F)c4)COC3)cc2)cc1` [Example 48, (4-Ethanesulfonyl-phenyl)-N-{4-[3-(3-fluoro-4-trifluoromethyl-phenyl)-oxetan-3-yloxy]-phenyl}-acetamide], for which the inhibition at 1 µM worked out at 60.3% and the inhibition at 10 µM amounted to 77.4%.

On to `CCS(=O)(=O)c1ccc(CC(=O)Nc2ccc(OC3(c4ccc(Cl)c(Cl)c4)CC3)cc2)cc1` [Example 49, N-{4-[1-(3,4-Dichloro-phenyl)-cyclopropoxy]-phenyl}-2-(4-ethanesulfonyl-phenyl)-acetamide], for which the half-inhibitory concentration (IC50) fell in the range of 50 to 100 nM, the inhibition at 1 µM was determined as 69.1% and the inhibition at 10 µM was 80%.

For `CCS(=O)(=O)c1ccc(CC(=O)Nc2ccc(OC3(c4ccc(Cl)c(F)c4)CC3)cc2)cc1` [Example 50, N-{4-[1-(4-Chloro-3-fluoro-phenyl)-cyclopropoxy]-phenyl}-2-(4-ethanesulfonyl-phenyl)-acetamide], the IC50 is less than 50 nM, the inhibition at 1 µM was 81.3% and the inhibition at 10 µM was 87.9%.

Take `CCS(=O)(=O)c1ccc(CC(=O)Nc2ccc(OC3(c4ccc(Cl)cc4F)CC3)cc2)cc1` [Example 51, N-{4-[1-(4-Chloro-2-fluoro-phenyl)-cyclopropoxy]-phenyl}-2-(4-ethanesulfonyl-phenyl)-acetamide]: the half-inhibitory concentration (IC50) was less than 50 nM, the inhibition at 1 µM came out at 85.9% and the inhibition at 10 µM turned out to be 87.7%.

Consider `CCS(=O)(=O)c1ccc(CC(=O)Nc2ccc(OC3(c4ccc(Cl)c(F)c4)CC3)nc2)cc1` [Example 52, N-{6-[1-(4-Chloro-3-fluoro-phenyl)-cyclopropoxy]-pyridin-3-yl}-2-(4-ethanesulfonyl-phenyl)-acetamide], for which the inhibition at 1 µM came out at 63.7% and the inhibition at 10 µM turned out to be 83.8%.

In the case of `CCS(=O)(=O)c1ccc(CC(=O)Nc2ccc(OC3(c4ccc(Cl)c(Cl)c4)CC3)nc2)cc1` [Example 53, N-{6-[1-(3,4-Dichloro-phenyl)-cyclopropoxy]-pyridin-3-yl}-2-(4-ethanesulfonyl-phenyl)-acetamide], the inhibition at 1 µM was 52.6% and the inhibition at 10 µM was 76.5%.

On to `CCS(=O)(=O)c1ccc(CC(=O)Nc2ccc(OC3(c4ccc(Cl)c(F)c4)CCC3)nc2)cc1` [Example 54, N-{6-[1-(4-Chloro-3-fluoro-phenyl)-cyclobutoxy]-pyridin-3-yl}-2-(4-ethanesulfonyl-phenyl)-acetamide], for which the IC50 was less than 50 nM, the inhibition at 1 µM was determined as 92% and the inhibition at 10 µM worked out at 93.7%.

As to `CCS(=O)(=O)c1ccc(CC(=O)Nc2ccc(OC3(c4ccc(Cl)c(F)c4)CCOCC3)nc2)cc1` [Example 55, N-{6-[4-(4-Chloro-3-fluoro-phenyl)-tetrahydro-pyran-4-yloxy]-pyridin-3-yl}-2-(4-ethanesulfonyl-phenyl)-acetamide], the inhibition at 1 µM worked out at 75.5% and the inhibition at 10 µM is 80.3%.

On to `CCS(=O)(=O)c1ccc(CC(=O)Nc2ccc(OC(C)(C)c3ccc(Cl)cc3F)nc2)cc1` [Example 56, N-{6-[1-(4-Chloro-2-fluoro-phenyl)-1-methyl-ethoxy]-pyridin-3-yl}-2-(4-ethanesulfonyl-phenyl)-acetamide], for which the half-inhibitory concentration (IC50) is less than 50 nM, the inhibition at 1 µM was determined as 83.1% and the inhibition at 10 µM stood at 91.3%.

Regarding `CCS(=O)(=O)c1ccc(CC(=O)Nc2ccc(OC(C)(C)c3ccc(F)cc3Cl)nc2)cc1` [Example 57, N-{6-[1-(2-Chloro-4-fluoro-phenyl)-1-methyl-ethoxy]-pyridin-3-yl}-2-(4-ethanesulfonyl-phenyl)-acetamide], the IC50 is 50 to 100 nM, the inhibition at 1 µM amounted to 78% and the inhibition at 10 µM was found to be 91.3%.

With `CCS(=O)(=O)c1ccc(CC(=O)Nc2ccc(OC(C)(C)c3ccc(Cl)cc3Cl)nc2)cc1` [Example 58, N-(6-{[2-(2,4-Dichlorophenyl)propan-2-yl]oxy}pyridin-3-yl)-2-[4-(ethylsulfonyl)phenyl]acetamide], the IC50 was less than 50 nM, the inhibition at 1 µM was found to be 83.7% and the inhibition at 10 µM amounted to 86.7%.

Consider `CCS(=O)(=O)c1ccc(CC(=O)Nc2ccc(OC(C)(C)c3ccc(Cl)c(Cl)c3)nc2)cc1` [Example 59, N-{6-[1-(3,4-Dichloro-phenyl)-1-methyl-ethoxy]-pyridin-3-yl}-2-(4-ethanesulfonyl-phenyl)-acetamide], for which the IC50 is less than 50 nM, the inhibition at 1 µM turned out to be 71.8% and the inhibition at 10 µM was determined as 86.7%.

Take `CCS(=O)(=O)c1ccc(CC(=O)Nc2ccc(C#CCOc3ccc(Cl)cc3Cl)cc2)cc1` [Example 60, N-{4-[3-(2,4-Dichlorophenoxy)prop-1-yn-1-yl]phenyl}-2-[4-(ethylsulfonyl)phenyl]acetamide]: the IC50 is more than 100 nM, the inhibition at 1 µM is 92.6% and the inhibition at 10 µM was 90.4%.

For `CCS(=O)(=O)c1ccc(CC(=O)Nc2ccc(C#CCOc3ccc(Cl)c(Cl)c3)cc2)cc1` [Example 61, N-{4-[3-(3,4-Dichlorophenoxy)prop-1-yn-1-yl]phenyl}-2-[4-(ethylsulfonyl)phenyl]acetamide], the IC50 was more than 100 nM, the inhibition at 1 µM stood at 85.5% and the inhibition at 10 µM was 92.9%.

Regarding `CCS(=O)(=O)c1ccc(CC(=O)Nc2ccc(C#CC(C)(C)Oc3ccc(Cl)c(Cl)c3)cc2)cc1` [Example 62, N-{4-[3-(3,4-Dichlorophenoxy)-3-methylbut-1-yn-1-yl]phenyl}-2-[4-(ethylsulfonyl)phenyl]acetamide], the IC50 was less than 50 nM, the inhibition at 1 µM came out at 86.3% and the inhibition at 10 µM is 90.2%.
